Consider two compounds from patent publication US20080058324A1, “Alpha-Keto Carbonyl Calpain Inhibitors” (SANTHERA PHARMACEUTICALS (SCHWEIZ) AG, priority 2004, published 2008).

The subject of data set [1] is experimental muscular dystrophy in hamster. Conditions: Journal of Pharmacobiodynamics, 1987, 10, 678; cited from earlier work.
Another data set addresses T1, human μ-calpain (Homo sapiens, UniProt P07384).
T1 construct: purchased Calbiochem
T1 sequence (P07384 1-714): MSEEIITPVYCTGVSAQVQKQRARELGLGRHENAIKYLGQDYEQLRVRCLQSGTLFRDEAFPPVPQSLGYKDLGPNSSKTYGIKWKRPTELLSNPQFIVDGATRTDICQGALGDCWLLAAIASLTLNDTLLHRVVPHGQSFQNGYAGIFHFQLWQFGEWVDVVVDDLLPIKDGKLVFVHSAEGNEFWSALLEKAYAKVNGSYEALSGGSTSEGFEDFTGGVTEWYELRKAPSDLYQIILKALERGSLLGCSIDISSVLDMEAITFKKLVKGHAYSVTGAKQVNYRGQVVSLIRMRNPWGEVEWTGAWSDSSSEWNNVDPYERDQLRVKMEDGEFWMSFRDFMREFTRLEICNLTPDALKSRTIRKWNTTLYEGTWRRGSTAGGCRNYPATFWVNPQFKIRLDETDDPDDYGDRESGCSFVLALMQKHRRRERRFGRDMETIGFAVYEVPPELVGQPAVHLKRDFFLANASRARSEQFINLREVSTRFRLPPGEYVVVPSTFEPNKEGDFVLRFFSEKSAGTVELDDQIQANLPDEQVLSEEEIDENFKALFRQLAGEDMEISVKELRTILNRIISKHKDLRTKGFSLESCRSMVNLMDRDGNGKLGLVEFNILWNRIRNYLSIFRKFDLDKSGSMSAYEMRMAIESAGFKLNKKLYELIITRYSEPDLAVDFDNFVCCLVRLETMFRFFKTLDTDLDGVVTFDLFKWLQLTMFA
T1 sequence (P04632 1-268 partner): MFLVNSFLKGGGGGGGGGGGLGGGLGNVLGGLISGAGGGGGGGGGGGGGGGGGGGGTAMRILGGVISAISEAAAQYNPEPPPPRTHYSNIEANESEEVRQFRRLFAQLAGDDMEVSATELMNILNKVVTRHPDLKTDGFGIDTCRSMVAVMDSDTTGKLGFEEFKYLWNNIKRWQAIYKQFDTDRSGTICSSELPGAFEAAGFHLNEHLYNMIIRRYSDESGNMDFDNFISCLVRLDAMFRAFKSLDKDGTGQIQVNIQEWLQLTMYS
Briefly: Enzymatic Calpain Inhibition Assay. It counts as biochemical. The note with it: read-out: Calp I IC50. The method, then: The Ki value was also determined in some cases. These criteria were used to measure the inhibitory effect of the compounds (I) on calpain I, calpain II and cathepsin B.
The inhibitory properties of calpain inhibitors are tested in 100 μl of a buffer containing 100 mM imidazole pH 7.5, 5 mM L-Cystein-HCl, 5 mM CaCl2, 250 μM of the calpain fluorogenic substrate Suc-Leu-Tyr-AMC (Sigma) (Sasaki et al., J. Biol. Chem., 1984, 259, 12489-12949) dissolved in 2.5 μl DMSO and 0.5 μg of human μ-calpain (Calbiochem). The inhibitors dissolved in 1 μl DMSO are added to the reaction buffer. The fluorescence of the cleavage product 7-amino-4-methylcoumarin (AMC) is followed in a SPECTRAmax GEMINI XS (Molecular Device) fluorimeter at λex=360 nm and λem=440 nm at 30° C. during 30 min at intervals of 30 sec in 96-well plates (Greiner). The initial reaction velocity at different inhibitor concentrations is plotted against the inhibitor concentration and the IC50 values determined graphically.

The next data set concerns the target T2, 20S Proteasome (Oryctolagus cuniculus, UniProt G1T4Q9).
T2 sequence (G1T4Q9 60-263): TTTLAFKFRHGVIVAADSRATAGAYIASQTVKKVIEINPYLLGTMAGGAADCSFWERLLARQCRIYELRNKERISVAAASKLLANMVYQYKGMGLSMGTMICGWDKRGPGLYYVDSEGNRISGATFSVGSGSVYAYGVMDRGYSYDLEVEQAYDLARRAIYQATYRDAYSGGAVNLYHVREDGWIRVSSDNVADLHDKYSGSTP
Briefly: 20S Proteasome Assay. It counts as biochemical, Rabbit. The note with it: read-out: 20S Prot IC50. The method, then:
25 μl of a reaction buffer containing 400 μM of the fluorogenic substrate Suc-Leu-Leu-Val-Tyr-AMC (Bachem) are dispensed per well of a white microtiter plate. Test compounds dissolved in 0.5 μl DMSO are added. To start the reaction; 25 μl of reaction buffer containing 35 ng of enzyme (20S Proteasome, Rabbit, Calbiochem) are added. The increase in fluorescence (excitation at 360 nm; emission at 440 nm) is measured over 30 min at 30° C. at 30″. The IC50's are then determined from the slopes.

Data set [2] concerns cellular calpains in C2C12 myoblasts. Briefly: Calpain Inhibition Assay in C2C12 Myoblasts. The note with it: read-out: Calp I IC50 Myoblast. It counts as cell-based. The method, then: This assay is aimed at monitoring the ability of the substance to inhibit cellular calpains. C2C12 myoblasts are grown in 96-well plates in growth medium (DMEM, 20% foetal calf serum) until they reach confluency. The growth medium is then replaced by fusion medium (DMEM, 5% horse serum). 24 hours later the fusion medium is replaced by fusion medium containing the test substances dissolved in 1 μl DMSO. After 2 hours of incubation at 37° C. the cells are loaded with the calpain fluorogenic substrate Suc-Leu-Tyr-AMC at 400 μM in 50 μl of a reaction buffer containing 135 mM NaCl; 5 mM KCl; 4 mM CaCl2; 1 mM MgCl2; 10 mM Glucose; 10 mM HEPES pH 7.25 for 20 min at room temperature. The calcium influx, necessary to activate the cellular calpains, is evoked by the addition of 50 μl reaction buffer containing 20 μM of the calcium ionophore Br-A-23187 (Molecular Probes). The fluorescence of the cleavage product AMC is measured as described above during 60 min at 37° C. at intervals of 1 min. The IC50 values are determined as described above. Comparison of the IC50 determined in the enzymatic calpain inhibition assay to the IC50 determined in the C2C12 myoblasts calpain inhibiton assay, allows to evaluate the cellular uptake or the membrane permeability of the substance.

Turning to `CCOC(=O)[C@H]1O[C@@H]1C(=O)N[C@@H](CC(C)C)C(=O)NCCC(C)C` [Example E-64-d], in data set [1], the life-prolonging effect result is reported as “life-prolonging effect”.

As a reminder, the IC50 is the point on the concentration scale where inhibition reaches its midpoint. A word on the melting point: it is the temperature, or range, at which the solid turns liquid. `CCNC(=O)C(=O)C(Cc1ccc(Cl)cc1)NC(=O)C(NC(=O)C(Cc1ccccc1)NC(=O)CCc1cccs1)C(C)C` (centres unmarked) [Example 3] yielded a melting point of 244 to 246 °C. On human μ-calpain, the IC50 was determined as 24 nM. The IC50 at 20S Proteasome stood at 42 nM. The half-inhibitory concentration (IC50) in data set [2] was 20 nM.
